Converted amounts (≈) assume the structure as drawn. The source made the active and inactive calls. No cut-off for these calls is given here.
Key:
[1] = test system: Japanese encephalitis virus; experiment: Antiviral activity against Japanese encephalitis virus Beijing infected in high viral dose challenge C57BL/6 mouse model assessed as survival rate at 6 mg/kg/day, ip twice daily for 9 days administered 1 day before infection measured after 28 days post infection relative to control; type: functional; settings: route intraperitoneal
dengue virus type 4 = experiment: Antiviral activity against Dengue virus type 4 infected in african green monkey Vero cells after 6 days by plaque reduction assay; type: functional, organism-based; settings: Dengue virus, Vero, 144 h; read-out: IC50
[2] = Therapeutic index, ratio of TC50 for african green monkey Vero cells to IC50 for Japanese encephalitis virus Nakayama; type: cell-based; settings: read-out: TI
Mus musculus [3] = experiment: Toxicity in C57BL/6 mouse assessed as change in body weight at 3 mg/kg/day, ip twice daily for 9 days administered 1 day before infection measured after 28 days post infection; type: organism-based; set-up: route intraperitoneal; settings: in vivo, 672 h
Mus musculus [4] = experiment: Toxicity in C57BL/6 mouse assessed as mortality at 3 mg/kg/day, ip twice daily for 9 days; type: organism-based; set-up: route intraperitoneal; settings: in vivo, 216 h
Mus musculus [5] = experiment: Toxicity in C57BL/6 mouse assessed as average day of death at 6 mg/kg/day, sc once daily for 7 days; type: organism-based; set-up: route subcutaneous; settings: in vivo, 168 h
Yellow fever virus = experiment: Antiviral activity against Yellow fever virus Ashibi infected in african green monkey Vero cells assessed as inhibition of virus-induced cytopathic effect by MTT assay; type: functional, organism-based; settings: Yellow fever virus, Ashibi, Vero; read-out: IC50
[6] = test system: Japanese encephalitis virus; experiment: Antiviral activity against Japanese encephalitis virus Beijing infected in high viral dose challenge C57BL/6 mouse model assessed as average day of death at 8 mg/kg/day, ip twice daily for 9 days administered 1 day before infection measured after 28 days post infection; type: functional; settings: route intraperitoneal
[7] = test system: Japanese encephalitis virus; experiment: Antiviral activity against Japanese encephalitis virus Beijing infected in low viral dose challenge C57BL/6 mouse model assessed as survival rate at 6 mg/kg/day, sc once daily for 7 days administered 1 day before infection measured after 28 days post infection relative to control; type: functional; settings: route subcutaneous
[8] = test system: Japanese encephalitis virus; experiment: Antiviral activity against Japanese encephalitis virus Beijing infected in high viral dose challenge C57BL/6 mouse model assessed as average day of death at 4 mg/kg/day, ip twice daily for 9 days administered 1 day before infection measured after 28 days post infection; type: functional; settings: route intraperitoneal
[9] = test system: Japanese encephalitis virus; experiment: Antiviral activity against Japanese encephalitis virus Beijing infected in low viral dose challenge C57BL/6 mouse model assessed as inhibition of virus-induced mortality at 4 mg/kg/day, sc once daily for 7 days administered 1 day before infection measured after 28 days post infection; type: functional, organism-based
Mus musculus [10] = experiment: Toxicity in C57BL/6 mouse assessed as change in body weight at 2 mg/kg/day, ip twice daily for 9 days administered 1 day before infection measured after 28 days post infection; type: organism-based; set-up: route intraperitoneal; settings: in vivo, 672 h
[11] = Therapeutic index, ratio of TC50 for african green monkey Vero cells to IC50 for Rift valley fever virus; type: cell-based; settings: read-out: TI
[12] = test system: Sandfly fever Sicilian virus; experiment: Antiviral activity against Sandfly fever sicilian virus infected in african green monkey Vero cells assessed as inhibition of virus-induced cytopathic effect by MTT assay; type: functional, organism-based; settings: vero
Mus musculus [13] = experiment: Toxicity in C57BL/6 mouse assessed as mortality at 4 mg/kg/day, ip twice daily for 9 days; type: organism-based; set-up: route intraperitoneal; settings: in vivo, 216 h
[14] = test system: Japanese encephalitis virus; experiment: Antiviral activity against Japanese encephalitis virus Nakayama infected in african green monkey Vero cells assessed as inhibition of virus-induced cytopathic effect by MTT assay; type: functional, organism-based; settings: Japanese encephalitis virus, Nakayama, Vero; read-out: IC50
[15] = test system: Japanese encephalitis virus; experiment: Antiviral activity against Japanese encephalitis virus Beijing infected in low viral dose challenge C57BL/6 mouse model assessed as average day of death at 6 mg/kg/day, sc once daily for 7 days administered 1 day before infection measured after 28 days post infection; type: functional; settings: route subcutaneous
[16] = test system: Japanese encephalitis virus; experiment: Antiviral activity against Japanese encephalitis virus Beijing infected in high viral dose challenge C57BL/6 mouse model assessed as average day of death at 5 mg/kg/day, ip twice daily for 9 days administered 1 day before infection measured after 28 days post infection; type: functional; settings: route intraperitoneal
Mus musculus [17] = experiment: Toxicity in C57BL/6 mouse assessed as mortality at 4 mg/kg/day, sc once daily for 7 days; type: organism-based; set-up: route subcutaneous; settings: in vivo, 168 h
Mus musculus [18] = experiment: Toxicity in C57BL/6 mouse assessed as mortality at 6 mg/kg/day, sc once daily for 7 days; type: organism-based; set-up: route subcutaneous; settings: in vivo, 168 h
Mus musculus [19] = experiment: Toxicity in C57BL/6 mouse assessed as change in body weight at 6 mg/kg/day, ip twice daily for 9 days administered 1 day before infection measured after 28 days post infection; type: organism-based; set-up: route intraperitoneal; settings: in vivo, 672 h
[20] = test system: Japanese encephalitis virus; experiment: Antiviral activity against Japanese encephalitis virus Beijing infected in high viral dose challenge C57BL/6 mouse model assessed as average day of death at 6 mg/kg/day, ip twice daily for 9 days administered 1 day before infection measured after 28 days post infection; type: functional; settings: route intraperitoneal
[21] = test system: Japanese encephalitis virus; experiment: Antiviral activity against Japanese encephalitis virus Beijing infected in high viral dose challenge C57BL/6 mouse model assessed inhibition of virus-induced mortality at 4 mg/kg/day, ip twice daily for 9 days administered 1 day before infection measured after 28 days post infection; type: functional, organism-based
Mus musculus [22] = experiment: Toxicity in C57BL/6 mouse assessed as change in body weight at 8 mg/kg/day, ip twice daily for 9 days administered 1 day before infection measured after 28 days post infection; type: organism-based; set-up: route intraperitoneal; settings: in vivo, 672 h
Rift Valley fever virus = experiment: Antiviral activity against Rift Valley fever virus infected in african green monkey Vero cells after 6 days by plaque reduction assay; type: functional, organism-based; settings: Rift Valley fever virus, Vero, 144 h; read-out: IC50
[23] = test system: Japanese encephalitis virus; experiment: Antiviral activity against Japanese encephalitis virus Beijing infected in low viral dose challenge C57BL/6 mouse model assessed as average day of death at 2 mg/kg/day, sc once daily for 7 days administered 1 day before infection measured after 28 days post infection; type: functional; settings: route subcutaneous
[24] = Therapeutic index, ratio of TC50 for african green monkey Vero cells to IC50 for Dengue type 4 virus; type: cell-based; settings: read-out: TI
[25] = Therapeutic index, ratio of TC50 for african green monkey Vero cells to IC50 for Yellow fever virus Ashibi; type: cell-based; settings: read-out: TI
[26] = test system: Japanese encephalitis virus; experiment: Antiviral activity against Japanese encephalitis virus Beijing infected in high viral dose challenge C57BL/6 mouse model assessed as average day of death at 3 mg/kg/day, ip twice daily for 9 days administered 1 day before infection measured after 28 days post infection; type: functional; settings: route intraperitoneal
Mus musculus [27] = experiment: Toxicity in C57BL/6 mouse assessed as change in body weight at 4 mg/kg/day, ip twice daily for 9 days administered 1 day before infection measured after 28 days post infection; type: organism-based; set-up: route intraperitoneal; settings: in vivo, 672 h
Mus musculus [28] = experiment: Toxicity in C57BL/6 mouse assessed as mortality at 2 mg/kg/day, sc once daily for 7 days; type: organism-based; set-up: route subcutaneous; settings: in vivo, 168 h
[29] = test system: Japanese encephalitis virus; experiment: Antiviral activity against Japanese encephalitis virus Beijing infected in high viral dose challenge C57BL/6 mouse model assessed as average day of death at 2 mg/kg/day, ip twice daily for 9 days administered 1 day before infection measured after 28 days post infection; type: functional; settings: route intraperitoneal
Mus musculus [30] = experiment: Toxicity in C57BL/6 mouse assessed as change in body weight at 5 mg/kg/day, ip twice daily for 9 days administered 1 day before infection measured after 28 days post infection; type: organism-based; set-up: route intraperitoneal; settings: in vivo, 672 h
[31] = test system: Japanese encephalitis virus; experiment: Antiviral activity against Japanese encephalitis virus Beijing infected in low viral dose challenge C57BL/6 mouse model assessed as average day of death at 4 mg/kg/day, sc once daily for 7 days administered 1 day before infection measured after 28 days post infection; type: functional; settings: route subcutaneous
Punta Toro virus = experiment: Antiviral activity against Punta Toro virus Adames infected in african green monkey Vero cells assessed as inhibition of virus-induced cytopathic effect by MTT assay; type: functional, organism-based
[32] = test system: Japanese encephalitis virus; experiment: Antiviral activity against Japanese encephalitis virus Beijing infected in low viral dose challenge C57BL/6 mouse model assessed as survival rate at 4 mg/kg/day, sc once daily for 7 days administered 1 day before infection measured after 28 days post infection relative to control; type: functional; settings: route subcutaneous
Mus musculus [33] = experiment: Toxicity in C57BL/6 mouse assessed as mortality at 2 mg/kg/day, ip twice daily for 9 days; type: organism-based; set-up: route intraperitoneal; settings: in vivo, 216 h

O=C1N[C@H]2[C@H](O)[C@H](O)[C@@H](O)[C@H](O)[C@@H]2c2cc3c(c(O)c21)OCO3 [PANCRATISTATIN]
Activity [1]: 50% | IC50 (dengue virus type 4): 0.063 µg/mL (≈ 0.194 µM) | selectivity ratio [2]: 4.2 | Activity (Mus musculus [3]): 2.1 | Activity (Mus musculus [4]): Non-toxic | AD50 (Mus musculus [5]): 2.7 days | IC50 (Yellow fever virus): 0.016 µg/mL (≈ 0.0492 µM) | Activity [6]: 12.9 days | Activity [7]: 90% | Activity [8]: 12.3 days | Activity [9]: Active | Activity (Mus musculus [10]): 2.8 | selectivity ratio [11]: 3.1 | IC50 [12]: Not Active | Activity (Mus musculus [13]): Non-toxic | IC50 [14]: 0.022 µg/mL (≈ 0.0676 µM) | Activity [15]: 15 days | Activity [16]: 10.4 days | Activity (Mus musculus [17]): Not Active | Activity (Mus musculus [18]): Non-toxic | Activity (Mus musculus [19]): 1.3 | Activity [20]: 11.8 days | Activity [21]: inactive | Activity (Mus musculus [22]): 1.5 | IC50 (Rift Valley fever virus): 0.16 µg/mL (≈ 0.492 µM) | Activity [23]: 16.3 days | selectivity ratio [24]: 8 | selectivity ratio [25]: 4.9 | Activity [26]: 12.6 days | Activity (Mus musculus [27]): 1.8 | Activity (Mus musculus [28]): Non-toxic | Activity [29]: 12.6 days | Activity (Mus musculus [30]): 1.4 | Activity [31]: 15.4 days | inhibition (INH) (Punta Toro virus): 25% | Activity [32]: 30% | Activity (Mus musculus [33]): Non-toxic

Reference: ChEMBL document CHEMBL1150051, “Antiviral (RNA) activity of selected Amaryllidaceae isoquinoline constituents and synthesis of related substances” (J Nat Prod, 1992)
